What was measured:
[1] = target: T1, uncoupling protein 1 (UCP1) (Mus musculus, UniProt P12242); assay: whole-IMM patch clamp, dose-dependent inhibition of IH induced by […] DNP; assay type: biochemical
T1 sequence (P12242 1-307): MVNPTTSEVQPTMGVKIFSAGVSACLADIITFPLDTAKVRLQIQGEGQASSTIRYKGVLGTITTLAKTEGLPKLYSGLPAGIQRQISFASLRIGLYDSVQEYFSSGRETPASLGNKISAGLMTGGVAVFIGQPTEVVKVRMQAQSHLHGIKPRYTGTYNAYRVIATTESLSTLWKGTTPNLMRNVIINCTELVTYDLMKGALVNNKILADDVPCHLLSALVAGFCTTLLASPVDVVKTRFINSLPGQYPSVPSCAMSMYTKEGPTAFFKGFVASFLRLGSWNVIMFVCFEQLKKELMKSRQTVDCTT

[2] = target: T1, uncoupling protein 1 (UCP1); assay: whole-IMM patch clamp, WT vs UCP1-/-; assay type: cell-based
ADP/ATP carrier AAC1 = target: T2, ADP/ATP carrier AAC1 (Mus musculus, UniProt P48962); assay: whole-IMM patch clamp; assay type: cell-based
T2 sequence (P48962 2-298): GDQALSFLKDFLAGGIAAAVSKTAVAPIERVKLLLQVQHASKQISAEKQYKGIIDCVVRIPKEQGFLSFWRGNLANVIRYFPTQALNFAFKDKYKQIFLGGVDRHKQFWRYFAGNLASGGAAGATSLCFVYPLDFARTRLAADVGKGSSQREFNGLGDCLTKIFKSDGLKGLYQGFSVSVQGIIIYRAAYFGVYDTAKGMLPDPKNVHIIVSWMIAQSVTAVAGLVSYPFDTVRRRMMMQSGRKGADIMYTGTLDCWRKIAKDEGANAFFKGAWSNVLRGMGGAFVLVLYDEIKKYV

## Nc1ncnc2c1ncn2[C@@H]1O[C@H](COP(=O)(O)OP(=O)(O)OP(=O)(O)O)[C@@H](O)[C@H]1O [ATP]
[1]
  IC50: ~14 µM

## O=[N+]([O-])c1ccc(O)c([N+](=O)[O-])c1 [DNP, 2,4-dinitrophenol]
[2]
  whole-IMM patch clamp, WT vs UCP1-/-; GDP block; competition with ATP: Thus, UCP1 is crucial for DNP-induced IH in brown fat mitochondria.

## N#CC(C#N)=NNc1ccc(OC(F)(F)F)cc1 [FCCP]
ADP/ATP carrier AAC1
  whole-IMM patch clamp (25-250 nM), WT vs AAC1-/-; CATR block: DNP and FCCP activate IH through AAC.

— article PMC9646675 (Nature, 2022)
